Reference: patent US20130252923A1, “SKIN-BEAUTIFYING AGENT” (MEGMILK SNOW BRAND CO., LTD., priority 2007, published 2013)

Assays:
[1] = tested on: hairless mice (Hos: HR-1); test: TEWL of the skin (Tewameter) after oral administration, animal test; format: in vivo; details: three weeks, positive control
Method: (§1) A skin-beautifying effect of milk-derived phospholipid was evaluated using the compositions containing milk-derived phospholipid obtained in Examples 1 and 2. In experiments 13-week-old hairless mice (Hos: HR-1) were used. […] A water content and TEWL of the skin of the tail and the base of the tail of the mice were measured at the initiation of the test and the completion of the test. Values obtained at the completion of the test were calculated by setting each value obtained at the initiation of the test as 100, and the obtained values were provided as a rate of increase. A water content of the skin and TEWL were measured with a Corneometer and a Tewameter manufactured by Courage +Khazaka electronic GmbH, respectively.

[2] = tested on: hairless mice (Hos: HR-1); test: Water content of the skin (Corneometer) after oral administration, animal test; format: in vivo; details: three weeks, positive control
Method: as §1

[3] = 3 mg sphingomyelin per kg body weight, oral once daily, value at initiation = 100

For sphingomyelin, the “Rate of TEWL increase” value [1, 3] was 86%, the “TEWL, times that of group A” value ([1]; 3 mg/kg sphingomyelin solely) was 0.85 times and the “Rate of water content increase” value [2, 3] was 124%. The “water content of the skin, times as much as the water content of the skin of group A” value ([2]; 3 mg/kg sphingomyelin solely) was 1.25 times.
